The results in this text go back to patent EP0067913B1, “Composition for the treatment of acne” (RUSH-HAMPTON INDUSTRIES, INC., priority 1981, dated 1982).

Molecules are shown by their SMILES.

Series [1] in a line: Water solubility (qualitative comparison). It is filed as physicochemical. The note with it: qualitative comparison with partially hydrolyzed naringin.
The subject of series [2] is Pityrosporum ovale ATCC 14521. Put plainly: Fungicidal activity test in corn oil medium (Sabouraud Dextrose broth and corn oil). Format: cell-based. The note with it: concentrations of 200 ppm or greater in the upper oil layer; 37°C, aerobic conditions, 7 days. As for the experimental part: This organism is cultured in a corn oil medium prepared with Sabouraud Dextrose broth and Mazola@ Corn Oil. Solutions of naringenin and this broth were made in which the concentration of naringenin in the upper oil layer was 200 ppm, 400 ppm, 600 ppm, and 800 ppm. Three solutions of each concentration were tested. Each tube was inoculated with a loop full of the test organism and incubated at 37°C under aerobic conditions for 7 days.

`O=C1C[C@@H](c2ccc(O)cc2)Oc2cc(O)cc(O)c21` [naringenin]: in series [1], the water solubility result is “less than those of partially hydrolyzed naringin”. For the same molecule, the “effect on the growth of Pityrosporum ovale ATCC 14521” value in series [2] is reported as “severely retarded the growth”.
